Data published in ChEMBL document CHEMBL3879908, “Pyrrolidinone carboxamide derivatives” (2014).

Biological target: T1, Chemerin-like receptor 1 (Homo sapiens, UniProt Q99788)
T1 sequence (Q99788 whole entry): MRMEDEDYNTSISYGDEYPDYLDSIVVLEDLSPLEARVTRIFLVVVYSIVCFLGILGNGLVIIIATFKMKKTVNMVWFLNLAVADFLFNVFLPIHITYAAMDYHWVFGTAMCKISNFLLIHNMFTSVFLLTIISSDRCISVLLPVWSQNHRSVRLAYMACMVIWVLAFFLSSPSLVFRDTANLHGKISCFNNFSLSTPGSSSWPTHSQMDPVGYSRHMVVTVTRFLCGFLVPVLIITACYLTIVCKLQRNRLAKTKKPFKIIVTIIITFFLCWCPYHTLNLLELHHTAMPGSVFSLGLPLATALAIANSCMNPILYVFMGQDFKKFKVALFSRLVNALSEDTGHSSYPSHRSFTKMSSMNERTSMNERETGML
Assay: Displacement of [125I]-chemerin from ChemR23 (unknown origin) transfected in mouse BaF3 cells after 3 hrs by scintillation counting method
Format: cell-based

SMILES	IC50
Cc1cccc(C)c1N1C[C@@](CN(C)CC2CCC2)(C(=O)Nc2cc(C(F)(F)F)cc(C(F)(F)F)c2)[C@H](C)C1=O	30 to 300 nM
Cc1cccc(C)c1N1C[C@@](CN2CCC(F)(F)C2)(C(=O)Nc2cc(C3CC3)cc(C(F)(F)F)c2)[C@H](C)C1=O	30 to 300 nM
Cc1cccc(C)c1N1C[C@@](CN2CCN(CC(F)(F)F)CC2)(C(=O)Nc2cc(F)cc(C(F)(F)F)c2)[C@H](C)C1=O	30 to 300 nM
CCc1cc(NC(=O)[C@]2(CN3CCC(F)(F)CC3)CN(c3c(C)cccc3C)C(=O)[C@H]2C)cc(C(F)(F)F)c1	30 to 300 nM
Cc1cccc(C)c1N1C[C@@](CN2CCO[C@H](C)C2)(C(=O)Nc2cc(C#N)cc(C(F)(F)F)c2)[C@H](C)C1=O	30 to 300 nM
Cc1cccc(C)c1N1C[C@@](CN2CCC(F)(F)CC2)(C(=O)Nc2cc(C#N)cc(C(F)(F)F)c2)[C@H](C)C1=O	30 to 300 nM
Cc1cccc(C)c1N1C[C@@](CN(C)CC(C)C)(C(=O)Nc2cc(C3CC3)cc(C(F)(F)F)c2)[C@H](C)C1=O	30 to 300 nM
Cc1cccc(C)c1N1C[C@@](CN2CCC(F)(F)CC2)(C(=O)Nc2cc(Cl)cc(C(F)(F)F)c2)[C@H](C)C1=O	30 to 300 nM
Cc1cccc(C)c1N1C[C@@](CN2CCCC(F)(F)C2)(C(=O)Nc2cc(C(F)(F)F)cc(C(F)(F)F)c2)[C@H](C)C1=O	30 to 300 nM
CCN(CC)C[C@@]1(C(=O)Nc2cc(OC(C)C)cc(C(F)(F)F)c2)CN(c2c(C)cccc2C)C(=O)[C@H]1C	30 to 300 nM
COC1CCN(C[C@@]2(C(=O)Nc3cc(C#N)cc(C(F)(F)F)c3)CN(c3c(C)cccc3C)C(=O)[C@H]2C)CC1	30 to 300 nM
Cc1cccc(C)c1N1C[C@@](CN(C)CC2CC2)(C(=O)Nc2cc(C#N)cc(C(F)(F)F)c2)[C@H](C)C1=O	30 to 300 nM
Cc1cccc(C)c1N1C[C@@](CN2CCC(F)(F)CC2)(C(=O)Nc2cc(F)cc(C(F)(F)F)c2)[C@H](C)C1=O	30 to 300 nM
COCCN(C)C[C@@]1(C(=O)Nc2cc(C#N)cc(C(F)(F)F)c2)CN(c2c(C)cccc2C)C(=O)[C@H]1C	30 to 300 nM
Cc1cccc(C)c1N1C[C@@](CN2CCC(F)(F)C2)(C(=O)Nc2cc(C(F)(F)F)cc(C(F)(F)F)c2)[C@H](C)C1=O	30 to 300 nM
Cc1cccc(C)c1N1C[C@@](CN2CCOC[C@H]2C)(C(=O)Nc2cc(C(F)(F)F)cc(C(F)(F)F)c2)[C@H](C)C1=O	30 to 300 nM
CCN(CC)C[C@@]1(C(=O)Nc2cc(Cl)cc(C(F)(F)F)c2)CN(c2c(C)cccc2C)C(=O)[C@H]1C	30 to 300 nM
Cc1cccc(C)c1N1C[C@@](CN(C)C(C)(C)CO)(C(=O)Nc2cc(C(F)(F)F)cc(C(F)(F)F)c2)[C@H](C)C1=O	30 to 300 nM
Cc1cccc(C)c1N1C[C@@](CN2CCC(F)(F)CC2)(C(=O)Nc2cc(OC(C)C)cc(C(F)(F)F)c2)[C@H](C)C1=O	≤ 30 nM
Cc1cccc(C)c1N1C[C@@](CN(C)C2CCC2)(C(=O)Nc2cc(OC(C)C)cc(C(F)(F)F)c2)[C@H](C)C1=O	30 to 300 nM
Cc1cccc(C)c1N1C[C@@](CN2CCC2)(C(=O)Nc2cc(C#N)cc(C(F)(F)F)c2)[C@H](C)C1=O	30 to 300 nM

Further lines, results first:

IC50	SMILES
≤ 30 nM	Cc1cccc(C)c1N1C[C@@](CN2CCC(F)(F)C2)(C(=O)Nc2cc(C#N)cc(C(F)(F)F)c2)[C@H](C)C1=O
≤ 30 nM	Cc1cccc(C)c1N1C[C@@](CN(C)CC2CC2)(C(=O)Nc2cc(C(F)(F)F)cc(C(F)(F)F)c2)[C@H](C)C1=O
≤ 30 nM	CCN(CCF)C[C@@]1(C(=O)Nc2cc(C(F)(F)F)cc(C(F)(F)F)c2)CN(c2c(C)cccc2C)C(=O)[C@H]1C
≤ 30 nM	Cc1cccc(C)c1N1C[C@@](CN(CCF)CCF)(C(=O)Nc2cc(C(F)(F)F)cc(C(F)(F)F)c2)[C@H](C)C1=O
≤ 30 nM	Cc1cccc(C)c1N1C[C@@](CN(CCF)CC2CC2)(C(=O)Nc2cc(C(F)(F)F)cc(C(F)(F)F)c2)[C@H](C)C1=O
≤ 30 nM	CCN(CC1CC1)C[C@@]1(C(=O)Nc2cc(C(F)(F)F)cc(C(F)(F)F)c2)CN(c2c(C)cccc2C)C(=O)[C@H]1C
≤ 30 nM	Cc1cccc(C)c1N1C[C@@](CN(C)CC(C)C)(C(=O)Nc2cc(OC(C)C)cc(C(F)(F)F)c2)[C@H](C)C1=O
≤ 30 nM	Cc1cccc(C)c1N1C[C@@](CN(C)CC(C)C)(C(=O)Nc2cc(C(F)F)cc(C(F)(F)F)c2)[C@H](C)C1=O
≤ 30 nM	Cc1cccc(C)c1N1C[C@@](CN(C)CC(F)(F)F)(C(=O)Nc2cc(C#N)cc(C(F)(F)F)c2)[C@H](C)C1=O
≤ 30 nM	Cc1cccc(C)c1N1C[C@@](CN(C)CCCCF)(C(=O)Nc2cc(C(F)(F)F)cc(C(F)(F)F)c2)[C@H](C)C1=O
≤ 30 nM	Cc1cccc(C)c1N1C[C@@](CN2CCC(F)CC2)(C(=O)Nc2cc(C#N)cc(C(F)(F)F)c2)[C@H](C)C1=O
≤ 30 nM	CCCN(CC)C[C@@]1(C(=O)Nc2cc(C(F)(F)F)cc(C(F)(F)F)c2)CN(c2c(C)cccc2C)C(=O)[C@H]1C
≤ 30 nM	CCCN(C)C[C@@]1(C(=O)Nc2cc(C(F)(F)F)cc(C(F)(F)F)c2)CN(c2c(C)cccc2C)C(=O)[C@H]1C
≤ 30 nM	Cc1cccc(C)c1N1C[C@@](CN(C)CC(C)C)(C(=O)Nc2cc(C(F)(F)F)cc(C(F)(F)F)c2)[C@H](C)C1=O
≤ 30 nM	Cc1cccc(C)c1N1C[C@@](CN(C)C2CCCCC2)(C(=O)Nc2cc(C(F)(F)F)cc(C(F)(F)F)c2)[C@H](C)C1=O
≤ 30 nM	Cc1cccc(C)c1N1C[C@@](CN(C)CC(C)(C)C)(C(=O)Nc2cc(C(F)(F)F)cc(C(F)(F)F)c2)[C@H](C)C1=O
≤ 30 nM	CCN(C[C@@]1(C(=O)Nc2cc(C#N)cc(C(F)(F)F)c2)CN(c2c(C)cccc2C)C(=O)[C@H]1C)C(C)C
≤ 30 nM	Cc1cccc(C)c1N1C[C@@](CN(CCF)CC(C)C)(C(=O)Nc2cc(C(F)(F)F)cc(C(F)(F)F)c2)[C@H](C)C1=O
≤ 30 nM	Cc1cccc(C)c1N1C[C@@](CN(C)CC(F)F)(C(=O)Nc2cc(C(F)(F)F)cc(C(F)(F)F)c2)[C@H](C)C1=O
≤ 30 nM	Cc1cccc(C)c1N1C[C@@](CN(C)C2CCC2)(C(=O)Nc2cc(C(F)(F)F)cc(C(F)(F)F)c2)[C@H](C)C1=O
≤ 30 nM	CCN(CC(F)(F)F)C[C@@]1(C(=O)Nc2cc(C#N)cc(C(F)(F)F)c2)CN(c2c(C)cccc2C)C(=O)[C@H]1C
≤ 30 nM	CCN(C[C@@]1(C(=O)Nc2cc(C(F)(F)F)cc(C(F)(F)F)c2)CN(c2c(C)cccc2C)C(=O)[C@H]1C)C(C)C
≤ 30 nM	CCN(C)C[C@@]1(C(=O)Nc2cc(C#N)cc(C(F)(F)F)c2)CN(c2c(C)cccc2C)C(=O)[C@H]1C
≤ 30 nM	Cc1cccc(C)c1N1C[C@@](CN(C)C(C)C)(C(=O)Nc2cc(C(F)(F)F)cc(C(F)(F)F)c2)[C@H](C)C1=O
≤ 30 nM	Cc1cccc(C)c1N1C[C@@](CN(C)CCF)(C(=O)Nc2cc(C(F)(F)F)cc(C(F)(F)F)c2)[C@H](C)C1=O
≤ 30 nM	COCC(C)(C)N(C)C[C@@]1(C(=O)Nc2cc(C(F)(F)F)cc(C(F)(F)F)c2)CN(c2c(C)cccc2C)C(=O)[C@H]1C
≤ 30 nM	Cc1cccc(C)c1N1C[C@@](CN2CCC(F)(F)CC2)(C(=O)Nc2cc(C(F)(F)F)cc(C(F)(F)F)c2)[C@H](C)C1=O
≤ 30 nM	Cc1cccc(C)c1N1C[C@@](CN(C)CC(F)(F)F)(C(=O)Nc2cc(C(F)(F)F)cc(C(F)(F)F)c2)[C@H](C)C1=O
≤ 30 nM	Cc1cccc(C)c1N1C[C@@](CN(C)C(C)C)(C(=O)Nc2cc(C#N)cc(C(F)(F)F)c2)[C@H](C)C1=O
≤ 30 nM	CCN(CC(C)C)C[C@@]1(C(=O)Nc2cc(C(F)(F)F)cc(C(F)(F)F)c2)CN(c2c(C)cccc2C)C(=O)[C@H]1C
